Test results reported in patent US9204653B2, “5-fluoro pyrimidine derivatives” (DOW AGROSCIENCES LLC, priority 2008, dated 2015).
Where two headings read alike, the source gives them in different places.

Test system: Mycosphaerella graminicola; Anamorph: Septoria tritici; Bayer Code SEPTTR
Experiment: Leaf blotch of wheat, foliar fungicide treatment, one day protectant (1DP) or three day curative (3DC)
Format: in vivo, Septoria tritici on wheat plants (variety Yuma)
Details: Zymoseptoria tritici; for pest or weed control at 50 ppm / pest or weed control at 200 ppm: % disease control rating
[1] = 24 h, one day protectant (1DP), 25 ppm (first 1DP column), percent control rating, read-out: SETTTR 1DP 25 ppm
[2] = 24 h, one day protectant (1DP), 25 ppm as printed (second 1DP column), percent control rating, read-out: SETTTR 1DP 25 ppm
[3] = 72 h, three day curative (3DC), 25 ppm, percent control rating, read-out: SEPTTR 3DC 25 ppm
[4] = 72 h, three day curative (3DC), percent control rating, read-out: SEPTTR 3DC 100 ppm
[5] = 24 h, one day protectant, 25 ppm, rating of percent disease control, read-out: SETTTR 1DP 25 ppm
[6] = 24 h, one day protectant, rating of percent disease control, read-out: SEPTTR 1DP 100 ppm
[7] = 72 h, three day curative, 25 ppm, rating of percent disease control, read-out: SEPTTR 3DC 25 ppm
[8] = 72 h, three day curative, rating of percent disease control, read-out: SEPTTR 3DC 100 ppm
[9] = 24 h, one day protectant (1DP), 25 ppm, rating of percent disease control, read-out: SETTTR 1DP 25 ppm
[10] = 24 h, one day protectant (1DP), rating of percent disease control, read-out: SEPTTR 1DP 100 ppm
[11] = 72 h, three day curative (3DC), 25 ppm, rating of percent disease control, read-out: SEPTTR 3DC 25 ppm
[12] = 72 h, three day curative (3DC), rating of percent disease control, read-out: SEPTTR 3DC 100 ppm
[13] = 24 h, one day protectant (1DP), 25 ppm, percent disease control rating, read-out: SETTTR 1DP 25 ppm
[14] = 24 h, one day protectant (1DP), percent disease control rating, read-out: SEPTTR 1DP 100 ppm
[15] = 72 h, three day curative (3DC), 25 ppm, percent disease control rating, read-out: SEPTTR 3DC 25 ppm
[16] = 72 h, three day curative (3DC), percent disease control rating, read-out: SEPTTR 3DC 100 ppm

Cc1ccc(COc2ncc(F)c(NNc3nccc(C(F)(F)F)n3)n2)cc1 [Compound 1041]
pest or weed control at 25 ppm [1]: 0 to 25% | pest or weed control at 25 ppm [2]: 0 to 25% | pest or weed control at 25 ppm [3]: 0 to 25% | pest or weed control at 100 ppm [4]: 0 to 25%

COc1ccc(C(=O)Oc2ncc(F)c(/N=C/N(C)C)n2)cc1 [Compound 636]
pest or weed control at 25 ppm [5]: 76 to 100% | pest or weed control at 100 ppm [6]: 76 to 100% | pest or weed control at 25 ppm [7]: 76 to 100% | pest or weed control at 100 ppm [8]: 76 to 100%

Fc1cnc(OCc2ccc(Cl)cc2)nc1NCCc1ccccc1 [Compound 908]
pest or weed control at 50 ppm (24 h, one day protectant): 76 to 100% | pest or weed control at 200 ppm (24 h, one day protectant): 76 to 100%

Cc1ccc(COc2ncc(F)c(NS(=O)(=O)c3ccccc3)n2)cc1 [Compound 994]
pest or weed control at 25 ppm [1]: 0 to 25% | pest or weed control at 25 ppm [2]: 26 to 50% | pest or weed control at 25 ppm [3]: 0 to 25% | pest or weed control at 100 ppm [4]: 0 to 25%

COc1ccccc1COc1ncc(F)c(NCO)n1 [Compound 571]
pest or weed control at 25 ppm [5]: 76 to 100% | pest or weed control at 100 ppm [6]: 76 to 100% | pest or weed control at 25 ppm [7]: 76 to 100% | pest or weed control at 100 ppm [8]: 76 to 100%

Fc1ccccc1CNc1nc(OCc2ccc(Cl)cc2Cl)ncc1F [Compound 863]
pest or weed control at 50 ppm (24 h, one day protectant): 76 to 100% | pest or weed control at 200 ppm (24 h, one day protectant): 76 to 100%

Nc1nc(OCc2cn3ccsc3n2)ncc1F [Compound 472]
pest or weed control at 25 ppm [9]: 76 to 100% | pest or weed control at 100 ppm [10]: 76 to 100% | pest or weed control at 25 ppm [11]: 76 to 100% | pest or weed control at 100 ppm [12]: 76 to 100%

CCCNC(=O)Nc1nc(O)ncc1F [Compound 980]
pest or weed control at 25 ppm [1]: 0 to 25% | pest or weed control at 25 ppm [2]: 0 to 25% | pest or weed control at 25 ppm [3]: 0 to 25% | pest or weed control at 100 ppm [4]: 0 to 25%

Fc1cnc(OCc2cc(Cl)cc(Cl)c2)nc1NCc1cccs1 [Compound 814]
pest or weed control at 200 ppm (24 h, one day protectant): 76 to 100%

Nc1nc(OCc2ccnc(Cl)c2)ncc1F [Compound 308]
pest or weed control at 25 ppm [9]: 76 to 100% | pest or weed control at 100 ppm [10]: 76 to 100% | pest or weed control at 25 ppm [11]: 76 to 100% | pest or weed control at 100 ppm [12]: 76 to 100%

Cn1ccc(COc2ncc(F)c(NSc3ccccc3[N+](=O)[O-])n2)n1 [Compound 366]
pest or weed control at 25 ppm [9]: 76 to 100% | pest or weed control at 100 ppm [10]: 76 to 100% | pest or weed control at 25 ppm [11]: 51 to 75% | pest or weed control at 100 ppm [12]: 76 to 100%

Cc1ccc(S(=O)(=O)Oc2ncc(F)c(N)n2)cc1 [Compound 671]
pest or weed control at 25 ppm [5]: 76 to 100% | pest or weed control at 100 ppm [6]: 76 to 100% | pest or weed control at 25 ppm [7]: 76 to 100% | pest or weed control at 100 ppm [8]: 76 to 100%

COc1cccc(C(=O)Oc2ncc(F)c(/N=C/N(C)C)n2)c1 [Compound 767]
pest or weed control at 25 ppm [9]: 76 to 100% | pest or weed control at 100 ppm [10]: 76 to 100% | pest or weed control at 25 ppm [11]: 76 to 100% | pest or weed control at 100 ppm [12]: 76 to 100%

COc1ncc(F)c(N/N=C/c2cccs2)n1 [Compound 1024]
pest or weed control at 25 ppm [1]: 0 to 25% | pest or weed control at 25 ppm [2]: 0 to 25% | pest or weed control at 25 ppm [3]: 0 to 25% | pest or weed control at 100 ppm [4]: 0 to 25%

Nc1nc(O/N=C2\CCc3ccccc32)ncc1F [Compound 181]
pest or weed control at 25 ppm [13]: 76 to 100% | pest or weed control at 100 ppm [14]: 76 to 100% | pest or weed control at 25 ppm [15]: 76 to 100% | pest or weed control at 100 ppm [16]: 76 to 100%

Fc1ccccc1CNc1nc(OCc2cccc(Cl)c2)ncc1F [Compound 924]
pest or weed control at 50 ppm (24 h, one day protectant): 76 to 100% | pest or weed control at 200 ppm (24 h, one day protectant): 76 to 100%

CN(Cc1ccc(C(F)(F)F)cc1)c1nc(O)ncc1F [Compound 1071]
pest or weed control at 25 ppm [1]: 0 to 25% | pest or weed control at 25 ppm [2]: 26 to 50% | pest or weed control at 25 ppm [3]: 26 to 50% | pest or weed control at 100 ppm [4]: 26 to 50%

Fc1ccccc1NNc1nc(OCc2ccccc2)ncc1F [Compound 1028]
pest or weed control at 25 ppm [1]: 0 to 25% | pest or weed control at 25 ppm [2]: 0 to 25% | pest or weed control at 25 ppm [3]: 0 to 25% | pest or weed control at 100 ppm [4]: 0 to 25%

O=[N+]([O-])c1ccccc1SNc1nc(OCc2ccc(F)cc2F)ncc1F [Compound 662]
pest or weed control at 25 ppm [5]: 0 to 25% | pest or weed control at 100 ppm [6]: 76 to 100% | pest or weed control at 25 ppm [7]: 26 to 50% | pest or weed control at 100 ppm [8]: 26 to 50%

O=[N+]([O-])c1ccccc1SNc1nc(OCc2cccc(F)c2)ncc1F [Compound 117]
pest or weed control at 25 ppm [13]: 26 to 50% | pest or weed control at 100 ppm [14]: 51 to 75% | pest or weed control at 25 ppm [15]: 26 to 50% | pest or weed control at 100 ppm [16]: 26 to 50%

Fc1cnc(OCc2cccc(C(F)(F)F)c2)nc1NCc1cccs1 [Compound 806]
pest or weed control at 200 ppm (24 h, one day protectant): 76 to 100%

COc1ccccc1NNc1nc(OCc2ccc(C)cc2)ncc1F [Compound 996]
pest or weed control at 25 ppm [1]: 26 to 50% | pest or weed control at 25 ppm [2]: 51 to 75% | pest or weed control at 25 ppm [3]: 26 to 50% | pest or weed control at 100 ppm [4]: 51 to 75%

Fc1cnc(OCc2ccco2)nc1NCc1ccc2c(c1)OCO2 [Compound 859]
pest or weed control at 50 ppm (24 h, one day protectant): 76 to 100% | pest or weed control at 200 ppm (24 h, one day protectant): 76 to 100%

N#Cc1cccc(COc2ncc(F)c(NC(=O)NCc3ccccc3F)n2)c1 [Compound 34, 1-[2-(3-Cyanobenzyloxy)-5-fluoropyrimidin-4-yl]-3-(2-fluorobenzyl)urea]
pest or weed control at 25 ppm [13]: 0 to 25% | pest or weed control at 100 ppm [14]: 0 to 25% | pest or weed control at 25 ppm [15]: 0 to 25% | pest or weed control at 100 ppm [16]: 0 to 25%

CN(C)/C=N/c1nc(O)ncc1F [Compound 25, N′-(5-Fluoro-2-hydroxy-pyrimidin-4-yl)-N,N-dimethyl-formamidine]
pest or weed control at 25 ppm [13]: 76 to 100% | pest or weed control at 100 ppm [14]: 76 to 100% | pest or weed control at 25 ppm [15]: 76 to 100% | pest or weed control at 100 ppm [16]: 76 to 100%

CC(Oc1ncc(F)c(NC(=O)c2ccccc2)n1)c1ccc(F)cc1 (stereo not shown) [Compound 149]
pest or weed control at 25 ppm [13]: 26 to 50% | pest or weed control at 100 ppm [14]: 76 to 100% | pest or weed control at 25 ppm [15]: 0 to 25% | pest or weed control at 100 ppm [16]: 51 to 75%

ON(c1nc(OCc2ccc(F)cc2)ncc1F)C1CCCCC1 [Compound 454]
pest or weed control at 25 ppm [9]: 0 to 25% | pest or weed control at 100 ppm [10]: 76 to 100% | pest or weed control at 25 ppm [11]: 26 to 50% | pest or weed control at 100 ppm [12]: 0 to 25%

O=C(Nc1ccccc1)Nc1nc(O)ncc1F [Compound 967]
pest or weed control at 25 ppm [1]: 26 to 50% | pest or weed control at 25 ppm [2]: 26 to 50% | pest or weed control at 25 ppm [3]: 51 to 75% | pest or weed control at 100 ppm [4]: 51 to 75%

Nc1nc(OCc2ccc(C(F)(F)F)cc2)ncc1F [Compound 705]
pest or weed control at 25 ppm [5]: 76 to 100% | pest or weed control at 100 ppm [6]: 76 to 100% | pest or weed control at 25 ppm [7]: 51 to 75% | pest or weed control at 100 ppm [8]: 76 to 100%

CN(/C=N/c1nc(OCc2ccc(F)cc2)ncc1F)Cc1ccccc1 [Compound 292]
pest or weed control at 25 ppm [9]: 76 to 100% | pest or weed control at 100 ppm [10]: 76 to 100% | pest or weed control at 25 ppm [11]: 76 to 100% | pest or weed control at 100 ppm [12]: 76 to 100%

COc1ccnc(Cl)c1S(=O)(=O)Nc1nc(OCc2ccc(C)cc2)ncc1F [Compound 1016]
pest or weed control at 25 ppm [1]: 0 to 25% | pest or weed control at 25 ppm [2]: 0 to 25% | pest or weed control at 25 ppm [3]: 51 to 75% | pest or weed control at 100 ppm [4]: 51 to 75%

Fc1cnc(OCC(F)(F)F)nc1NCCc1ccccc1 [Compound 861]
pest or weed control at 50 ppm (24 h, one day protectant): 0 to 25% | pest or weed control at 200 ppm (24 h, one day protectant): 26 to 50%

Fc1cnc(OCc2ccccc2)nc1NNC1CCCCC1 [Compound 493]
pest or weed control at 25 ppm [9]: 0 to 25% | pest or weed control at 100 ppm [10]: 26 to 50% | pest or weed control at 25 ppm [11]: 0 to 25% | pest or weed control at 100 ppm [12]: 0 to 25%

O=C(Nc1ccsc1)Nc1nc(OCc2ccc(F)cc2)ncc1F [Compound 587]
pest or weed control at 25 ppm [5]: 0 to 25% | pest or weed control at 100 ppm [6]: 0 to 25% | pest or weed control at 25 ppm [7]: 26 to 50% | pest or weed control at 100 ppm [8]: 76 to 100%

Nc1nc(OCc2ccc(OC(F)(F)F)cc2)ncc1F [Compound 596]
pest or weed control at 25 ppm [5]: 76 to 100% | pest or weed control at 100 ppm [6]: 76 to 100% | pest or weed control at 25 ppm [7]: 76 to 100% | pest or weed control at 100 ppm [8]: 76 to 100%
